Drawing on patent US7678784B2, “Oxime-containing macrocyclic acyl guanidines as β-secretase inhibitors” (Bristol-Myers Squibb Company, priority 2006, dated 2010), this text covers ring closure, yield of all isomers and IC50 for 15 compounds.

System in one series: not given
Experiment: not given
Conditions: from C=CCCCCN(CC(=O)Nc1c(Cl)cc(CNC(=NC(=O)CC(=NOCC)c2ccc(OCC=C)cc2)NC(=O)OC(C)(C)C)cc1Cl)C(=O)OC(C)(C)C; rcm bond; Grubbs 1st generation catalyst; dichloromethane; 2.93 mM; 65.0 °C; 2.0 h.
Turning to `CCON=C1CC(=O)N=C(NC(=O)OC(C)(C)C)NCc2cc(Cl)c(c(Cl)c2)NC(=O)CN(C(=O)OC(C)(C)C)CCCCC=CCOc2ccc1cc2`, the ring closure, yield of all isomers is 80.5%.

The same series, now with this note: from C=CCCCN(CC(=O)Nc1c(Cl)cc(CNC(=NC(=O)CC(=NOCC)c2ccc(OCC=C)cc2)NC(=O)OC(C)(C)C)cc1Cl)C(=O)OC(C)(C)C; rcm bond; Grubbs 1st generation catalyst; dichloromethane; 2.62 mM; 65.0 °C; 1.5 h.
Turning to `CCON=C1CC(=O)N=C(NC(=O)OC(C)(C)C)NCc2cc(Cl)c(c(Cl)c2)NC(=O)CN(C(=O)OC(C)(C)C)CCCC=CCOc2ccc1cc2`, the ring closure, yield of all isomers came to 82.9%.

Still in this series, the particulars now being: from C=CCCN(CC(=O)Nc1c(Cl)cc(CNC(=NC(=O)CC(=NOCC)c2ccc(OCC=C)cc2)NC(=O)OC(C)(C)C)cc1Cl)C(=O)OC(C)(C)C; rcm bond; Grubbs 1st generation catalyst; dichloromethane; 3.0 mM; 65.0 °C; 4.0 h.
Compound `CCON=C1CC(=O)N=C(NC(=O)OC(C)(C)C)NCc2cc(Cl)c(c(Cl)c2)NC(=O)CN(C(=O)OC(C)(C)C)CCC=CCOc2ccc1cc2` had a ring closure, yield of all isomers of 69.1%.

The same series, now with this note: from C=CCOc1ccc(C(CC(=O)N=C(NCc2cc(Cl)c(NC(=O)CN(CC=C)C(=O)OC(C)(C)C)c(Cl)c2)NC(=O)OC(C)(C)C)=NOCC)cc1; rcm bond; Grubbs 1st generation catalyst; dichloromethane; 2.85 mM; 65.0 °C; 4.0 h.
On to `CCON=C1CC(=O)N=C(NC(=O)OC(C)(C)C)NCc2cc(Cl)c(c(Cl)c2)NC(=O)CN(C(=O)OC(C)(C)C)CC=CCOc2ccc1cc2`, for which the ring closure, yield of all isomers was found to be 82.8%.

Another series deals with T1, BACE1 enzyme (Homo sapiens, UniProt P56817).
T1 construct: The HEK293-9B.A1 cell line, which overexpresses the BACE1 enzyme, was derived from HEK293 cells; endogenous in cells; washed 48,000 x g pellet of cell homogenate
T1 sequence (P56817 46-501): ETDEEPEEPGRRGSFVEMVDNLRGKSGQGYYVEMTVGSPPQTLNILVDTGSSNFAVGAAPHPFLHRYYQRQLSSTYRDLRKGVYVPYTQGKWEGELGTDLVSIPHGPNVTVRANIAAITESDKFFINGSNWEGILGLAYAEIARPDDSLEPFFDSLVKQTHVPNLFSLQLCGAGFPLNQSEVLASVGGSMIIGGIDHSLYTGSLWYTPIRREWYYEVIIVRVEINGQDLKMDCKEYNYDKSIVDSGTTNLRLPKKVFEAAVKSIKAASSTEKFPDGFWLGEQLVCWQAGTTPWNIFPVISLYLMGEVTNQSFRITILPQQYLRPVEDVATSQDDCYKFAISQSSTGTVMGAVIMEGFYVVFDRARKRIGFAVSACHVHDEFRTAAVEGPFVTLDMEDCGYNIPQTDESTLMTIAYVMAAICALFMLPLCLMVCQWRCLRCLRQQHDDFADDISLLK
As to the kind of experiment: Radioligand displacement assay with a radiolabeled BACE inhibitor on HEK293-9B.A1 cell homogenate. It counts as binding. Conditions: displacement of 1 nM tritiated radioligand, HEK293-9B.A1 homogenate, pH 5.0, 1.5 hr at 25° C.; read-out: Activity Rating (Activity based on IC50 values). The text has this:
There are a number of methods by which inhibitors of the BACE enzyme can be identified experimentally. The enzyme can be obtained from membrane samples from natural tissues or cultured cells or can be expressed recombinantly in a host cell by well known methods of molecular biology. The whole enzyme or a portion thereof can be expressed, for example, in bacterial, insect or mammalian cells to obtain a catalytically active enzyme species. The enzymatic activity and/or ligand binding capability of the enzyme can be assessed within these membrane samples, or the enzyme can be purified to varying extents. As an illustrative example, the nucleic acid sequence encoding the pro and catalytic domains of human BACE can be appended on the 5′ end with an untranslated and signal sequence from the gene for acetylcholinesterase, and on the 3′ end with a sequence encoding a poly-histidine tag. This cDNA can then be expressed in Drosophila melanogaster S2 cells in which the signal and pro sequences of the transcribed/translated protein are removed by cellular proteases and the catalytic domain, appended by a C-terminal poly-histidine tag, is secreted out into the cellular medium. The enzyme can then be purified from the culture medium by nickel affinity chromatography by methods well known to those trained in the art [Mallender, W. et al., “Characterization of recombinant, soluble beta-secretase from an insect cell expression system.” Mol. Pharmacol. 2001, 59: 619-626]. Similar strategies for expressing and purifying various forms of BACE in bacterial, mammalian and other cell types would be known to one skilled in the art. A preferred method for determining the potency of a test compound in binding to the BACE enzyme is by monitoring the displacement of a suitable radioligand.
Radioligand displacement assays with a radiolabeled BACE inhibitor (WO 2004 013098, compound 3, where the methoxy group is substituted for C(^3H)3) were carried out using standard methods (Keen, M. (1999) in Receptor Binding Techniques (Walker, J. M. ed) p. 106 Humana Press, Totowa, N.J.). The HEK293-9B.A1 cell line, which overexpresses the BACE1 enzyme, was derived from HEK293 cells (Simmons, N. L. (1990) A cultured human renal epitheloid cell line responsive to vasoactive intestinal peptide. Exp. Physiol. 75:309-19.) by RAGE™ M (Harrington, J. J. et al. (2001) Creation of genome-wide protein expression libraries using random activation of gene expression. Nat. Biotechnol. 19:440-5; U.S. Pat. Nos. 6,410,266 and 6,361,972). T225 flask cultures of HEK293-9B.A1 were grown to 80% confluency in DMEM supplemented with 2 mM L-glutamine, 10 μg/ml penicillin, 10 μg/ml streptomycin, 3 μg/ml puromycin, 100 nM methotrexate, and 10% fetal bovine serum (Invitrogen, Carlsbad, Calif.), harvested, and resuspended at 2×10^8 cells per 10 ml of lysis buffer consisting of 50 mM HEPES pH 7.0 containing a protease inhibitor cocktail of AEBSF 104 μM, aprotinin 80 nM, leupeptin 2 μM, bestatin 4 μM, pepstatin A 1.5 μM, and E-64 1.4 μM (0.1% of protease inhibitor cocktail P8340, Sigma-Aldrich, St. Louis, Mo.) at 4° C. The resuspended cells were homogenized using a Polytron (Brinkman, Westbury, N.Y.) at setting 6 for 10 sec., then centrifuged at 48,000×g for 10 min. The resulting pellet was washed by repeating the resuspension, homogenization and centrifugation steps. The final pellet was resuspended in buffer at 4° C. to yield a total protein concentration of 5 mg/ml, then aliquots were frozen in liquid nitrogen for further storage at −70° C. Immediately before carrying out a binding assay, an aliquot of cell homogenate was thawed and diluted to a concentration of 100 μg/ml in assay buffer consisting of 50 mM HEPES pH 5.0 and 0.1% CHAPSO. […]
On the technique in general: Loss of bound radioactivity is the signal in a displacement assay; it reports binding, not function.
On to `CCON=C1CC(=O)N=C(N)NCc2cc(Cl)c(c(Cl)c2)NC(=O)CNCCCCOc2ccc1cc2` [Example 3, 4-Amino-23,26-dichloro-13-oxa-3,5,18,21-tetraazatricyclo[20.2.2.2^9,12]-octacosa-1(24),4,9,11,22,25,27-heptaene-6,8,20-trione 8-(O-ethyloxime)], for which the IC50 – broadly, the concentration needed to halve the response being measured – lay in the range of 5 to 50 nM. With `CCON=C1CC(=O)/N=C(\N)NCc2cc(Cl)c(c(Cl)c2)NC(=O)CNCC=CCOc2ccc1cc2` (single isomer, unassigned; isomer a) [Example 1, Isomer A of 4-amino-23,26-dichloro-13-oxa-3,5,18,21-tetraazatricyclo[20.2.2.2^9,12]octacosa-1(24),4,9,11,15,22,25,27-octaene-6,8,20-trione 8-(O-ethyloxime)], the IC50 is more than 50 nM. As for `CCON=C1CC(=O)N=C(N)NCc2cc(Cl)c(c(Cl)c2)NC(=O)CNCCCC=CCOc2ccc1cc2` (single isomer, unassigned; isomer a) [Example 7, Isomer A of 4-amino-25,28-dichloro-13-oxa-3,5,20,23-tetraazatricyclo[22.2.2.29,12]triaconta-1(26),4,9,11,15,24,27,29-octaene-6,8,22-trione 8-(O-ethyloxime)], the IC50 is less than 5 nM. For `CCON=C1CC(=O)N=C(N)NCc2cc(Cl)c(c(Cl)c2)NC(=O)CNCCCCCCOc2ccc1cc2` [Example 9, 4-Amino-25,28-dichloro-13-oxa-3,5,20,23-tetraazatricyclo[22.2.2.2^9,12]-triaconta-1(26),4,9,11,24,27,29-heptaene-6,8,22-trione 8-(O-ethyloxime)], the IC50 was less than 5 nM.

As for `CCON=C1CC(=O)/N=C(\N)NCc2cc(Cl)c(c(Cl)c2)NC(=O)CNCC=CCOc2ccc1cc2` (single isomer, unassigned; isomer b) [Example 2, Isomer B of 4-amino-23,26-dichloro-13-oxa-3,5,18,21-tetraazatricyclo-[20.2.2.2^9,12]octacosa-1(24),4,9,11,15,22,25,27-octaene-6,8,20-trione 8-(O-ethyloxime)], the IC50 is more than 50 nM. For `CCON=C1CC(=O)N=C(N)NCc2cc(Cl)c(c(Cl)c2)NC(=O)CNCCCCCOc2ccc1cc2` [Example 6], the IC50 is 5 to 50 nM.

`CCON=C1CC(=O)N=C(N)NCc2cc(Cl)c(c(Cl)c2)NC(=O)CNCCC=CCOc2ccc1cc2` (single isomer, unassigned; isomer b) [Example 5, Isomer B of 4-amino-24,27-dichloro-13-oxa-3,5,19,22-tetraazatricyclo-[21.2.2.29,12]nonacosa-1(25),4,9,11,15,23,26,28-octaene-6,8,21-trione 8-(O-ethyloxime)]: the IC50 is 5 to 50 nM. In the case of `CCON=C1CC(=O)N=C(N)NCc2cc(Cl)c(c(Cl)c2)NC(=O)CNCCCC=CCOc2ccc1cc2` (single isomer, unassigned; isomer b) [Example 8, Isomer B of 4-amino-25,28-dichloro-13-oxa-3,5,20,23-tetraazatricyclo-[22.2.2.29,12]triaconta-1(26),4,9,11,15,24,27,29-octaene-6,8,22-trione 8-(O-ethyloxime)], the IC50 was less than 5 nM. Regarding `CCON=C1CC(=O)N=C(N)NCc2cc(Cl)c(c(Cl)c2)NC(=O)CNCCCCCCCOc2ccc1cc2` [Example 11, 4-Amino-26,29-dichloro-13-oxa-3,5,21,24-tetraazatricyclo-[23.2.2.2^9,12]hentriaconta-1(27),4,9,11,25,28,30-heptaene-6,8,23-trione 8-(O-ethyloxime)], the IC50 was less than 5 nM.

As to `CCON=C1CC(=O)N=C(N)NCc2cc(Cl)c(c(Cl)c2)NC(=O)CNCCC=CCOc2ccc1cc2` (single isomer, unassigned; isomer a) [Example 4, Isomer A of 4-amino-24,27-dichloro-13-oxa-3,5,19,22-tetraazatricyclo-[21.2.2.29,12]nonacosa-1(25),4,9,11,15,23,26,28-octaene-6,8,21-trione 8-(O-ethyloxime)], the IC50 lay in the range of 5 to 50 nM. In the case of `CCON=C1CC(=O)N=C(N)NCc2cc(Cl)c(c(Cl)c2)NC(=O)CNCCCCC=CCOc2ccc1cc2` [Example 10, 4-Amino-26,29-dichloro-13-oxa-3,5,21,24-tetraazatricyclo-[23.2.2.2^9,12]hentriaconta-1(27),4,9,11,15,25,28,30-octaene-6,8,23-trione 8-(O-ethyloxime)], the IC50 was less than 5 nM.
